Experimental data taken from ChEMBL document CHEMBL1201862, “PubChem BioAssay data set” (2004).
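Each compound was tested at five concentrations against cells in 96-well plates for 48 hours. GI50: concentration for 50% inhibition of growth.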 Active and inactive are the calls of the source. No stated cut-off is given here; in the data, active = GI50 up to about 1.1 µM and inactive = higher.

How the values were obtained:
Experiment in all cases: DTP human tumour cell line panel, 48 h
Hs-578T = system: Hs-578T
UACC-62 = system: UACC-62
EKVX = system: EKVX
HCC 2998 = system: HCC 2998
NCI-H226 = system: NCI-H226
UO-31 = system: UO-31
SK-MEL-28 = system: SK-MEL-28
SF-268 = system: SF-268
RPMI-8226 = system: RPMI-8226
U-251 = system: U-251
MOLT-4 = system: MOLT-4
SNB-19 = system: SNB-19
TK-10 = system: TK-10
SW-620 = system: SW-620
HOP-92 = system: HOP-92
PC-3 = system: PC-3
CAKI-1 = system: CAKI-1
SK-OV-3 = system: SK-OV-3
NCI-H23 = system: NCI-H23
SK-MEL-5 = system: SK-MEL-5

| SMILES | GI50 (Hs-578T) | GI50 (UACC-62) | GI50 (EKVX) | GI50 (HCC 2998) | GI50 (NCI-H226) | GI50 (UO-31) | GI50 (SK-MEL-28) | GI50 (SF-268) | GI50 (RPMI-8226) | GI50 (U-251) | GI50 (MOLT-4) | GI50 (SNB-19) | GI50 (TK-10) | GI50 (SW-620) | GI50 (HOP-92) | GI50 (PC-3) | GI50 (CAKI-1) | GI50 (SK-OV-3) | GI50 (NCI-H23) | GI50 (SK-MEL-5) |
| --- | --- | --- | --- | --- | --- | --- | --- | --- | --- | --- | --- | --- | --- | --- | --- | --- | --- | --- | --- | --- |
| Cc1cc2c(=Cc3ccc(N(C)C)cc3)c3ccccc3n2[n+]1C | 0.628 µM (active) | 1.4 µM (inactive) | 1.02 µM (active) | 0.256 µM (active) | 1.01 µM (active) | 3.01 µM (inactive) | 1.2 µM (inactive) | 0.537 µM (active) | 0.107 µM (active) | 0.203 µM (active) | 0.282 µM (active) | 0.415 µM (active) | 1.3 µM (inactive) | 1.21 µM (inactive) | 0.459 µM (active) | 0.44 µM (active) | 3.3 µM (inactive) | 1.44 µM (inactive) | 0.497 µM (active) | 0.414 µM (active) |
| O=C(CCc1ccc(O)c(O)c1)NCCc1cc(O)cc(O)c1 | > 100 µM (inactive) | > 100 µM (inactive) | > 100 µM (inactive) | > 100 µM (inactive) | > 100 µM (inactive) | 63.5 µM (inactive) | > 100 µM (inactive) | > 100 µM (inactive) | > 100 µM (inactive) | > 100 µM (inactive) | > 100 µM (inactive) | > 100 µM (inactive) | > 100 µM (inactive) | > 100 µM (inactive) | > 100 µM (inactive) | > 100 µM (inactive) | > 100 µM (inactive) | > 100 µM (inactive) | > 100 µM (inactive) | > 100 µM (inactive) |
| O=c1c2c3c(sc2nc2n1sc1nc4sc5c(c4c(=O)n12)CCCC5)CCCC3 | 39.6 µM (inactive) | 10.9 µM (inactive) | 12 µM (inactive) | 36.1 µM (inactive) | > 50.7 µM (inactive) | 18.5 µM (inactive) | > 80.5 µM (inactive) | 42 µM (inactive) | 22.2 µM (inactive) | > 83 µM (inactive) | 37.1 µM (inactive) | 92.9 µM (inactive) | 89.1 µM (inactive) | 28.8 µM (inactive) | 51.2 µM (inactive) | 54.5 µM (inactive) | 19.5 µM (inactive) | 99.1 µM (inactive) | 30.6 µM (inactive) | > 100 µM (inactive) |
| O=C(c1cc2ccccc2cc1O)N1CCCCC1 | 46 µM (inactive) | 31.4 µM (inactive) | 20.3 µM (inactive) | 21.2 µM (inactive) | 17.8 µM (inactive) | 40.5 µM (inactive) | 41.8 µM (inactive) | 36.1 µM (inactive) | 17.6 µM (inactive) | 52.4 µM (inactive) | 15.3 µM (inactive) | 28.5 µM (inactive) | > 100 µM (inactive) | 48 µM (inactive) | 11.4 µM (inactive) | 29.8 µM (inactive) | 50.7 µM (inactive) | 42.2 µM (inactive) |  | 20 µM (inactive) |
| Cc1cc(S(=O)(=O)NC(=C(C#N)C#N)[n+]2ccc(N(C)C)cc2)c([S-])cc1Cl | > 100 µM (inactive) | > 100 µM (inactive) | > 100 µM (inactive) | > 100 µM (inactive) | > 100 µM (inactive) | > 100 µM (inactive) | > 100 µM (inactive) | > 100 µM (inactive) | > 100 µM (inactive) | > 100 µM (inactive) | > 100 µM (inactive) | > 100 µM (inactive) | > 100 µM (inactive) |  | 28.7 µM (inactive) | > 100 µM (inactive) | > 100 µM (inactive) | > 100 µM (inactive) | > 100 µM (inactive) | > 100 µM (inactive) |
| COc1ccccc1C(=O)OCC1CCCN2CCCCC12 (stereo not given) | 59.7 µM (inactive) | 31.7 µM (inactive) | 81.7 µM (inactive) | 17.8 µM (inactive) | 54.8 µM (inactive) | > 100 µM (inactive) | 26.4 µM (inactive) | 36.5 µM (inactive) | 42.2 µM (inactive) | 26 µM (inactive) | 38.5 µM (inactive) | 35.9 µM (inactive) | > 100 µM (inactive) | > 100 µM (inactive) | > 100 µM (inactive) | 85.5 µM (inactive) | > 100 µM (inactive) | > 100 µM (inactive) | > 100 µM (inactive) | 34.4 µM (inactive) |
| COc1cc(C2c3cc4c(cc3OC(N3CCOCC3)C2C)OCO4)cc(OC)c1O (stereo not given) | 3.18 µM (inactive) | 3.73 µM (inactive) | 36.2 µM (inactive) | 10.5 µM (inactive) | 22.6 µM (inactive) | 14.8 µM (inactive) | 12.9 µM (inactive) | 17.7 µM (inactive) | 8.2 µM (inactive) | 7.52 µM (inactive) | 3.18 µM (inactive) | 22.3 µM (inactive) | 18.7 µM (inactive) | 3.84 µM (inactive) | 12.8 µM (inactive) | 6.19 µM (inactive) | 11.5 µM (inactive) | 5.69 µM (inactive) | 24.8 µM (inactive) | 3.18 µM (inactive) |
| Cc1cn(CCCCOC(=O)NC(CCCNC(N)=O)C(=O)O)c(=O)[nH]c1=O (stereo not given) | > 100 µM (inactive) | > 100 µM (inactive) | > 100 µM (inactive) | > 100 µM (inactive) | > 100 µM (inactive) | > 100 µM (inactive) | > 100 µM (inactive) | > 100 µM (inactive) | > 100 µM (inactive) | > 100 µM (inactive) | > 100 µM (inactive) | > 100 µM (inactive) | > 100 µM (inactive) | > 100 µM (inactive) | > 100 µM (inactive) | > 100 µM (inactive) | > 100 µM (inactive) | > 100 µM (inactive) | > 100 µM (inactive) |  |
| N#Cc1c(C#N)c(-c2cccc([N+](=O)[O-])c2)n(-c2ccccc2)c1N | 55.1 µM (inactive) | 66.1 µM (inactive) | > 100 µM (inactive) | > 100 µM (inactive) | 18 µM (inactive) | > 100 µM (inactive) |  | 88.7 µM (inactive) | > 100 µM (inactive) | 44.8 µM (inactive) | > 100 µM (inactive) | 46.8 µM (inactive) | > 100 µM (inactive) | > 100 µM (inactive) | 17.8 µM (inactive) | > 100 µM (inactive) | 44.4 µM (inactive) | 96.2 µM (inactive) | > 100 µM (inactive) | > 100 µM (inactive) |
| COc1ccc(C2(c3ccc(OC)cc3)OC(=O)c3cccc4cccc2c34)cc1 | 9.51 µM (inactive) | 5.28 µM (inactive) | 2.76 µM (inactive) | 3.14 µM (inactive) | 27.6 µM (inactive) | > 100 µM (inactive) |  | > 100 µM (inactive) | 3.12 µM (inactive) | 4.38 µM (inactive) | 4.58 µM (inactive) | 94 µM (inactive) | 5.94 µM (inactive) | 5.18 µM (inactive) | > 100 µM (inactive) | 2.16 µM (inactive) | 2.96 µM (inactive) | 6.46 µM (inactive) | 12.6 µM (inactive) | 5.25 µM (inactive) |
